Assay [1] addresses T1, HPK1 (Homo sapiens, UniProt Q92918).
T1 sequence (Q92918 1-346 limits assumed): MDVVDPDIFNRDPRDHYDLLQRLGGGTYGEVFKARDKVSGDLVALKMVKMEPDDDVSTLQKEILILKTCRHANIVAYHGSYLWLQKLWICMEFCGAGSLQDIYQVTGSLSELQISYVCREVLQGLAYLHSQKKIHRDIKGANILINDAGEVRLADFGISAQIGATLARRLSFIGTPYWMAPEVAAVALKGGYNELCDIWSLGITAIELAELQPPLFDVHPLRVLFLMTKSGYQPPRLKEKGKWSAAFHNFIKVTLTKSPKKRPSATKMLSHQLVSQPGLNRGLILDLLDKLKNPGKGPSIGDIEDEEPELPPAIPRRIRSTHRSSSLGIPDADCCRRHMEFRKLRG
Briefly: HPK1 kinase activity assay (ADP-Glo). As to conditions: HPK1 Kinase activity IC50 (nM), 1 nM HPK1, 10 μM ATP, 0.1 μg/μL MBP.
Description: Preparation of buffer: 1× reaction buffer (40 mM Tris-HCl, 20 mM MgCl2, 0.01% Brij35, 50 μM DTT, 0.1 mg/ml BSA) was prepared using sterile water, which was prepared and used on the day of the experiment.
(§1) Preparation of 1000× drug stock plate: a 1000× compound stock plate was prepared. […] The compound stock plate was sealed with a sealing film and stored in a −20° C. refrigerator for later use.
Compound preparation and dosing: the 1000× drug stock plate was taken and melted at room temperature in the dark. Then 5× drug intermediate plate was prepared using reaction buffer and mixed well. 2 μL was transferred from the 5× drug intermediate plate into a 384-well plate, and negative control well and positive control well (in which 2 μL reaction buffer containing 0.5% DMSO was added) were set. Each point was repeated twice.
Preparation and incubation of reaction mixture: HPK1 protein was diluted to a 2.5× working solution with reaction buffer. 4 μL 2.5×HPK1 protein was added to each well containing test compound and positive control well, and 4 μL of reaction buffer without HPK1 protein was added to the negative control well. The obtained mixture was centrifuged at 1000 rpm for 1 min and then incubated in a 20° C. incubator for 15 min. A 2.5× mixed working solution of MBP protein and ATP was prepared with reaction buffer at concentrations of 0.5 μg/μL and 50 PM, respectively. 4 μL of the mixed working solution of MBP and ATP was added to each well, centrifuged at 1000 rpm for 1 min, and then incubated in a 20° C. incubator for 90 min.
ADP-Glo detection and reading plate: 10 μl ADP-Glo was added to each well of the test plate. The resulting mixture was centrifuged at 1000 rpm for 1 min and incubated in a 20° C. incubator for 60 min. Then 10 μL of the final incubation solution was transferred from the test plate to a new 384-well plate. 10 μL of kinase detection reagent was added to each well, centrifuged at 400 g for 1 min, and incubated in a 20° C. incubator for 60 min. Chemiluminescent signals were read by a microplate reader.

Assay [2] concerns the target HPK1 (Homo sapiens, UniProt Q92918). The assay is described as follows: SLP76 phosphorylation assay (intracellular HPK1 inhibitory activity, p-SLP76 Ser376 sandwich ELISA). As to conditions: p-SLP76 IC50(nM), Jurkat, Clone E6-1 cells; 1 h compound pre-incubation, anti-CD3 beads stimulation 20 min; SLP76 phosphorylation at S376. A general note: In an ELISA, binding on a coated surface is turned into a signal by an enzyme label.
Target sequence in this assay (Q92918 whole entry): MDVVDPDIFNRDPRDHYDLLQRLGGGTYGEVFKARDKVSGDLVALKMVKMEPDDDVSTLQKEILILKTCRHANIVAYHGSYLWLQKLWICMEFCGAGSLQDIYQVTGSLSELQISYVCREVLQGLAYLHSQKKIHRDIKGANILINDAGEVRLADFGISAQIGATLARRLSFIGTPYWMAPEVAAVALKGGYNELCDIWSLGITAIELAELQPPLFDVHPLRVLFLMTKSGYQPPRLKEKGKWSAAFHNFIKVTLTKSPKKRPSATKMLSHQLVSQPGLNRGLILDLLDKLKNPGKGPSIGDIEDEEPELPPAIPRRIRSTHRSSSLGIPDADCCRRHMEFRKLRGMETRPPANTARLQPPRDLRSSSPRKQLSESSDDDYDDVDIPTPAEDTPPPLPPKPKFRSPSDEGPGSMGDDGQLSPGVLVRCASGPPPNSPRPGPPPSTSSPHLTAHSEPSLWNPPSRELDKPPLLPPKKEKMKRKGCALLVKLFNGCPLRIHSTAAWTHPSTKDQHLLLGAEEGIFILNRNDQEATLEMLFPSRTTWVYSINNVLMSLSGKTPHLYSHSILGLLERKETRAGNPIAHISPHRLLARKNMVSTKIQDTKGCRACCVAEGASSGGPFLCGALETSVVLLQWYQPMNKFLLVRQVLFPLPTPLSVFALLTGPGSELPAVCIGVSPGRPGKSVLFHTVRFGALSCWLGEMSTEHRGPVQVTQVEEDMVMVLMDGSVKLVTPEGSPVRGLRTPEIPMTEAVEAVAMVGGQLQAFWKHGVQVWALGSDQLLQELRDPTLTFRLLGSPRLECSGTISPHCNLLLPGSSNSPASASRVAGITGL
Description: Intracellular HPK1 inhibitory activity was tested by the detection of SLP76 phosphorylation at S376.
as §1
Preparation of Beads wash buffer: 0.1 mL FBS and 0.4 mL 0.5 M EDTA (with a final concentration of 2 mM) were added to 100 mL PBS and stored in a 4° C. refrigerator for later use.
100× Protease Inhibitor Cocktail in 1/20 total volume was added and stored on wet ice for later use. The buffer was ready to use.
Cell inoculation and dosing: the 1000× drug stock plate was taken and melted at room temperature in the dark. […] Jurkat cells in the logarithmic growth phase were selected and collected. […] The cells were inoculated into a 96-well plate (the volume was 90 μL per well), and a blank control well (without cells inoculation, and in which 110 μL of medium was added) was set. 10 μL of a drug-containing culture medium (10×) was transferred from the 10× drug intermediate plate into the 96-well cell plate (with a final concentration of 0.1% DMSO), and set a DMSO control group (in which 0.1% DMSO was added to the treated cells), a stimulated control group (in which 10 μL of culture medium was added to treat cells) and an unstimulated group (in which 10 μL of culture medium was added to treat cells). The wells were duplicated, gently patted, mixed, and then placed into a 5% CO2 incubator at 37° C. for 1 h.
Anti-CD3 beads stimulation: Dynabeads anti-human CD3 was taken, shaken, and mixed for 60 s. The required volume of beads was pipetted, and an equal volume or at least 1 mL of washing solution was added to wash once. Fresh complete medium was then added to resuspend and adjust the density of the beads to 4×10^7/mL, and the beads were placed on ice for later use. At the end of drug pre-incubation, the cell culture plate was taken out. 10 μL Dynabeads anti-human CD3 was added to each well to treat the cells, and 10 μL the culture medium was added to the unstimulated group. The cell culture plate was shaken to mix well at 2500 rpm for 10 s, and then placed into a 5% CO2 incubator at 37° C. and continued to culture for 20 min.
Detection of p-SLP76 protein level. PathScan Phospho-SLP-76 (Ser376) Sandwich ELISA Kit was applied to detect p-SLP76 protein level. At the end of the Anti-CD3 beads stimulation, the cell culture plate was removed from the incubator. […] After lysis, the cell culture plate was centrifuged at 4° C., 400×g for 5 min. 25 μL of sample and 75 μL of sample diluent were added to each well, and the plate was placed in a 5% CO2 incubator at 37° C. for 2 h. The subsequent detection steps were carried out following the kit instructions, and the absorbance (OD value) of each well was read at 450 nm by a microplate reader.

Usually IC50 stands for the concentration at which inhibition is half-maximal. Read a high IC50 as lower potency.

The structures appear in SMILES notation. Bounds are passed on as bounds.

Regarding `Cc1c[nH]c2ncc(-c3cc4c(c([C@@H]5CCCN5)c3)CN(C(=O)c3ccnc(C(C)(C)O)c3)CC4)cc12` [Compound Z327, (S)-(2-(2-hydroxypropan-2-yl)pyridin-4-yl)(6-(3-methyl-1H-pyrrolo[2,3-b]pyridin-5-yl)-8-(pyrrolidin-2-yl)-3,4-dihydroisoquinolin-2(1H)-yl)methanone], the figures for the concentration for half-maximal inhibition (IC50) at HPK1 [1] and on HPK1 [2] were 0.33 nM and 150 nM, respectively.
As for `Cc1c[nH]c2ncc(-c3cc4c(c([C@@H]5CCCN5)c3)CN(CC3CCOCC3)CC4)cc12` [Compound Z442, (S)-6-(3-methyl-1H-pyrrolo[2,3-b]pyridin-5-yl)-8-(pyrrolidin-2-yl)-2-((tetrahydro-2H-pyran-4-yl)methyl)-1,2,3,4-tetrahydroisoquinoline], the IC50 against HPK1 [1] was 1.5 nM; on HPK1 [2], 412 nM.
For the compound `Cc1c[nH]c2ncc(-c3cc4c(c([C@@H]5CCCN5)c3)CN(C(=O)c3cn(C)nc3C(F)(F)F)CC4)cc12` [Compound Z337, [6-(3-methyl-1H-pyrrolo[2,3-b]pyridin-5-yl)-8-[(2S)-pyrrolidin-2-yl]-3,4-dihydro-1H-isoquinolin-2-yl]-[l-methyl-3-(trifluoromethyl)pyrazol-4-yl]methanone], the concentration for half-maximal inhibition (IC50) at HPK1 [1] is 1.57 nM; against HPK1 [2], 359 nM.
Take `Cc1cc(C(=O)N2CCc3c(cc(-c4cnc5[nH]cc(C)c5c4)cc3[C@@H]3CCCN3)C2)cc(C)n1` [Compound Z279, (S)-(2,6-dimethylpyridin-4-yl)(7-(3-methyl-1H-pyrrolo[2,3-b]pyridin-5-yl)-5-(pyrrolidin-2-yl)-3,4-dihydroisoquinolin-2(1H)-yl)methanone]: the IC50 is 0.44 nM at HPK1 [1] and 162 nM against HPK1 [2].
Take `Cc1c[nH]c2ncc(-c3cc4c(c([C@@H]5CCCN5)c3)CN(C(=O)[C@@H](O)c3ccccc3)CC4)cc12` [Compound Z290, (S)-2-hydroxy-1-(6-(3-methyl-1H-pyrrolo[2,3-b]pyridin-5-yl)-8-((S)-pyrrolidin-2-yl)-3,4-dihydroisoquinolin-2(1H)-yl)-2-acetophenone]: the IC50 on HPK1 [1] amounted to 0.77 nM; on HPK1 [2] it was 272 nM.
For `CO[C@@H]1CCN(C(=O)N2CCc3cc(-c4cnc5[nH]cc(C)c5c4)cc([C@@H]4CCCN4)c3C2)C1` [Compound Z357-2, ((R)-3-methoxypyrrolidin-1-yl)(6-(3-methyl-1H-pyrrolo[2,3-b]pyridin-5-yl)-8-((S)-pyrrolidin-2-yl)-3,4-dihydroisoquinolin-2(1H)-yl)methanone], in that order: 0.26 nM and 80.7 nM.
In the case of `Cc1c[nH]c2ncc(-c3cc4c(c(C5CC(=O)N5)c3)COCC4)cc12` (centres unmarked) [Compound Z231, 4-(6-(3-methyl-1H-pyrrolo[2,3-b]pyridin-5-yl)isochroman-8-yl)azetidin-2-one], the IC50 is 35.3 nM on HPK1 [1] and more than 10000 nM at HPK1 [2].
Regarding `Cc1c[nH]c2ncc(-c3cc4c(c([C@@H]5CCCN5)c3)CCN(c3ccnn3C)C4)cc12` [Compound Z307, (S)-2-(1-methyl-1H-pyrazol-5-yl)-7-(3-methyl-1H-pyrrolo[2,3-b]pyridin-5-yl)-5-(pyrrolidin-2-yl)-1,2,3,4-tetrahydroisoquinoline], the concentration for half-maximal inhibition (IC50) against HPK1 [1] is 0.53 nM; against HPK1 [2], 277 nM.
`Cc1cc(C(=O)N2CCc3cc(-c4cnc5[nH]cc(C)c5c4)cc([C@@H]4CCCN4)c3C2)cc(C)n1` [Compound Z214, (S)-(6-(3-methyl-1H-pyrrolo[2,3-b]pyridin-5-yl)-8-(pyrrolidin-2-yl)-3,4-dihydroisoquinolin-2(1H)-yl) (2,6-dimethylpyridin-4-yl)methanone]: the figures for the 50% inhibitory concentration (IC50) at HPK1 [1] and at HPK1 [2] were 1.04 nM and 181 nM, respectively.
For `CC(=O)N1CCc2cc(-c3cnc4[nH]cc(C)c4c3)cc(C3CCCN3)c2C1` (centres unmarked) [Compound Z98, 1-(6-(3-methyl-1H-pyrrolo[2,3-b]pyridin-5-yl)-8(pyrrolidin-2-yl)-3,4-dihydroisoquinolin-2(1H)-yl)ethanone], in that order: 0.9 nM and 237 nM.

The values are drawn from US20240182465A1 (GENFLEET THERAPEUTICS (SHANGHAI) INC., priority 2021, published 2024).
